Source: ChEMBL document CHEMBL1201862, “PubChem BioAssay data set” (2004)
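Dose response: 5 concentrations. Exposure: 48 h. Format: 96-well plates. Endpoint: linear interpolation; highest concentration if not reached. GI50: concentration for 50% inhibition of growth.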 The source made the active and inactive calls. No stated cut-off is given here; in the data, active = GI50 up to about 1.1 µM and inactive = higher.

Legend:
Assay in all cases: inhibition of tumour cell growth, NCI panel, 48 h
[1] = test system: SR
[2] = test system: SF-295
[3] = test system: SNB-75
[4] = test system: UACC-62
[5] = test system: NCI-H23
[6] = test system: Malme-3M
[7] = test system: SF-268
[8] = test system: NCI/ADR-RES
[9] = test system: EKVX
[10] = test system: LOX IMVI
[11] = test system: M14
[12] = test system: OVCAR-3
[13] = test system: HOP-92
[14] = test system: IGROV-1
[15] = test system: SN12C
[16] = test system: A549
[17] = test system: MDA-MB-435
[18] = test system: NCI-H522
[19] = test system: SF-539
[20] = test system: HCC 2998

SMILES | GI50 [1] | GI50 [2] | GI50 [3] | GI50 [4] | GI50 [5] | GI50 [6] | GI50 [7] | GI50 [8] | GI50 [9] | GI50 [10] | GI50 [11] | GI50 [12] | GI50 [13] | GI50 [14] | GI50 [15] | GI50 [16] | GI50 [17] | GI50 [18] | GI50 [19] | GI50 [20]
O=C1c2cc([N+](=O)[O-])ccc2-c2ccc3c4ccc5c6c(ccc(c7ccc1c2c73)c64)C(=O)c1cc([N+](=O)[O-])ccc1-5 | > 100 µM (inactive) | > 100 µM (inactive) | > 100 µM (inactive) | > 100 µM (inactive) | > 100 µM (inactive) | > 100 µM (inactive) | > 100 µM (inactive) | > 100 µM (inactive) | > 100 µM (inactive) | > 100 µM (inactive) | > 100 µM (inactive) | > 100 µM (inactive) | > 100 µM (inactive) | > 100 µM (inactive) | > 100 µM (inactive) | > 100 µM (inactive) | > 100 µM (inactive) | > 100 µM (inactive) | – | –
NC(=O)c1csc(-c2ccc(CO)o2)n1 | > 100 µM (inactive) | > 100 µM (inactive) | – | > 100 µM (inactive) | > 100 µM (inactive) | > 100 µM (inactive) | > 100 µM (inactive) | > 100 µM (inactive) | > 100 µM (inactive) | > 100 µM (inactive) | > 100 µM (inactive) | > 100 µM (inactive) | > 100 µM (inactive) | > 100 µM (inactive) | > 100 µM (inactive) | > 100 µM (inactive) | > 100 µM (inactive) | > 100 µM (inactive) | > 100 µM (inactive) | –
C/C(=N\Nc1nc2ccccc2s1)c1ccc2ccccc2n1 | 2 µM (inactive) | > 100 µM (inactive) | 15.5 µM (inactive) | > 100 µM (inactive) | > 100 µM (inactive) | 58.6 µM (inactive) | 28.8 µM (inactive) | > 100 µM (inactive) | 12.2 µM (inactive) | > 100 µM (inactive) | 46.2 µM (inactive) | 34.8 µM (inactive) | – | 0.402 µM (active) | > 100 µM (inactive) | > 100 µM (inactive) | > 100 µM (inactive) | 32.3 µM (inactive) | 58.7 µM (inactive) | –
COc1cc(C2SCC(=O)N2c2ccc(Oc3ccc(Cl)cc3)c(Cl)c2)cc(OC)c1OC (stereo unspecified) | 22 µM (inactive) | 16.4 µM (inactive) | 17.2 µM (inactive) | 16 µM (inactive) | 32.8 µM (inactive) | 19.8 µM (inactive) | 17.2 µM (inactive) | 16.6 µM (inactive) | 23.6 µM (inactive) | 17.9 µM (inactive) | 29.9 µM (inactive) | 17.1 µM (inactive) | – | 15.6 µM (inactive) | 27.3 µM (inactive) | 21.9 µM (inactive) | 16 µM (inactive) | 12 µM (inactive) | 22.8 µM (inactive) | 40 µM (inactive)
COc1ccccc1/C=C\C(=O)C1COCN1 (stereo unspecified) | 1.95 µM (inactive) | 26.1 µM (inactive) | 18.6 µM (inactive) | 14.5 µM (inactive) | > 100 µM (inactive) | 19.3 µM (inactive) | 21 µM (inactive) | 15.2 µM (inactive) | 19.4 µM (inactive) | 4.83 µM (inactive) | 50.8 µM (inactive) | 8.24 µM (inactive) | – | 16.1 µM (inactive) | 16.4 µM (inactive) | 23.1 µM (inactive) | 6.9 µM (inactive) | 16 µM (inactive) | 20.5 µM (inactive) | –
